Legend:
S. aureus (ATCC 12600) [1] = experiment: Minimal microbicidal concentration (MMC99) assay; format: cell-based, Staphylococcus aureus
Description: (§1) All the synthesised peptides were tested for their in vitro microbicidal activity against S. aureus (American Type Culture Collection (ATCC) 12600) and P. aeruginosa (ATCC 15442) using a minimal microbicidal concentration (MMC) assay as previously described (Haversen et al. [2010]). Bacteria were cultured in 3.7% brain heart infusion (BHI) broth (Difco, BD Diagnostics, Franklin Lakes, NJ) on a shaker at 250 rpm overnight at 37°C. The culture was diluted 1:10 in fresh 3.7% BHI and incubated for two additional hours to reach log-phase growth. The bacteria were pelleted by centrifugation at 900 × g and suspended in 0.037% BHI to a concentration of 10^7 CFU/mL, estimated by measuring optical density at 600 nm (OD600). To investigate the influence of physiological conditions on microbicidal effect of the peptides, four different assay media were used: 0.037% BHI, 0.037% BHI supplemented with 85 or 150 mM sodium chloride (NaCl), and 50% heat inactivated simulated wound fluid (h.i. SWF) composed of a 50:50 mixture of 0.1% peptone (Oxoid, Basingstoke, UK) in 150 mM NaCl and fetal bovine serum (FBS; PAA Laboratories GmbH, Pasching, Austria), diluted two times in ultra pure water. The peptides were serially diluted by twofold steps from 200 to 1.56 mg/L in the assay media used, and 100 μL of the peptide solutions were mixed with 5 μL bacterial suspensions in a 96 well plate (Nunc, Roskilde, Denmark) and incubated at 37°C for two hours. An aliquot of 5 μL from each well was aspirated and added as drops onto blood agar plates (Columbia agar; Oxoid, Basingstoke, UK) supplemented with 5% defibrinated horse blood (Swedish National Veterinary Institute (SVA), Uppsala, Sweden), and the plates were incubated overnight at 37°C. All samples were processed as duplicates. The minimal test compound concentration causing ≥99% reduction of bacteria was defined as the MMC99. The concentration of the bacterial suspension used in the assay was confirmed by viable count estimation on blood agar plates (Oxoid).
(§2) CEN1 HC was further screened for microbicidal activity against a panel of microbial strains using the MMC99 assay, as described above, except using only two different assay media; 0.037% BHI and 50% h.i. SWF. The following microbial strains were tested for sensitivity: S. aureus (ATCC 12600), MRSA (ATCC 33591), Staphylococcus epidermidis (ATCC 12228), Streptococcus pyogenes (ATCC 12344), Propionibacterium acnes (ATCC 6919) Escherichia coli (ATCC 11775), P. aeruginosa (ATCC 15442), Klebsiella pneumoniae (Culture collection, University of Gothenburg (CCUG) 59413, clinical isolate resistant to penicillins, cephalosporins, aztreonam and carbapenems, with the reference strain ATCC 13883), Acinetobacter baumannii (CCUG 58437, clinical isolate resistant to tobramycin, trimsulfa, ciprofloxacin, cefotaxim, ceftazidim, meropenem, pipera/tazobactam, with the reference strain ATCC 19606) and the yeast strain Candida albicans (ATCC 64549). Mupirocin (GlaxoSmithKline) and fusidic acid (LEO Pharma) were used as comparative control antibiotics.

[2] = test system: P. aeruginosa (ATCC 15442); experiment: Minimal microbicidal concentration (MMC99) assay; format: cell-based, Pseudomonas aeruginosa; details: for MMC99, P. aeruginosa ATCC 15442, 0.037% BHI / MMC99, P. aeruginosa ATCC 15442, 50% h.i. SWF: Table 3 panel
Description: as §1, §2

MRSA (ATCC 33591) [3] = experiment: Minimal microbicidal concentration (MMC99) assay; format: cell-based, methicillin-resistant S. aureus; details: Table 3 panel, up to 200 mg/L, duplicates, maximum of at least two independent experiments
Description: as §1
CEN1 HC was further screened for microbicidal activity against a panel of microbial strains using the MMC99 assay, as described above, except using only two different assay media; 0.037% BHI and 50% h.i. SWF. […]

[4] = test system: Acinetobacter baumannii (CCUG 58437); experiment: Minimal microbicidal concentration (MMC99) assay; format: cell-based; details: Table 3 panel, multiresistant clinical isolate, up to 200 mg/L, duplicates, maximum of at least two independent experiments
Description: as §1, §2

[5] = test system: Candida albicans (ATCC 64549); experiment: Minimal microbicidal concentration (MMC99) assay; format: cell-based; details: Table 3 panel, yeast, up to 200 mg/L, duplicates, maximum of at least two independent experiments
Description: as §1, §2

[6] = test system: Escherichia coli (ATCC 11775); experiment: Minimal microbicidal concentration (MMC99) assay; format: cell-based; details: Table 3 panel, up to 200 mg/L, duplicates, maximum of at least two independent experiments
Description: as §1, §2

[7] = test system: Klebsiella pneumoniae (CCUG 59413); experiment: Minimal microbicidal concentration (MMC99) assay; format: cell-based; details: Table 3 panel, multiresistant clinical isolate, up to 200 mg/L, duplicates, maximum of at least two independent experiments
Description: as §1, §2

[8] = test system: Staphylococcus epidermidis (ATCC 12228); experiment: Minimal microbicidal concentration (MMC99) assay; format: cell-based; details: Table 3 panel, up to 200 mg/L, duplicates, maximum of at least two independent experiments
Description: as §1, §2

[9] = test system: Streptococcus pyogenes (ATCC 12344); experiment: Minimal microbicidal concentration (MMC99) assay; format: cell-based; details: Table 3 panel, up to 200 mg/L, duplicates, maximum of at least two independent experiments
Description: as §1, §2

[10] = test system: Propionibacterium acnes (ATCC 6919); experiment: Minimal microbicidal concentration (MMC99) assay; format: cell-based; details: Table 3 panel, up to 200 mg/L, duplicates, maximum of at least two independent experiments
Description: as §1, §2

S. aureus (ATCC 12600) [11] = experiment: In vitro multistep resistance assay (MMC99 after passages); format: cell-based, Staphylococcus aureus
Description: (§3) S. aureus (ATCC 12600) and MRSA (ATCC 33591) were cultured according to the protocol described above and diluted to 10^8 CFU/mL in 0.037% BHI as estimated by measuring OD600. The multistep resistance assay was performed as previously described (Kosowska-Shick et al. [2006]). Peptide dilutions were prepared in twofold dilution steps in the concentration range from 0.75 mg/L to 96 mg/L in a volume of 1 mL using 0.37% BHI medium. The same peptide concentration range was used during all passages and new peptide dilutions were prepared each day from stock solutions. Mupirocin (Applichem), the active substance in the conventional topical antibiotic Bactroban, was used as a comparator. The antibiotic control was handled in the same way as the peptides except that the concentration range of mupirocin was 0.003 mg/L to 3 mg/L.
(§4) An aliquot of 10 μL (10^8 CFU/mL) of the bacterial suspension was added to the peptide dilutions, to the positive antibiotic control, and to a negative control incubated without peptide, and the suspensions were incubated at 37°C for 24 h. Turbidity of the overnight cultures was determined by OD600 measurements. The OD600 of bacteria/peptide suspensions was calculated by subtracting the OD600 of the peptide mixed with medium from the OD600 measured on the overnight cultures. […]

MRSA (ATCC 33591) [12] = experiment: as above; format: cell-based, methicillin-resistant S. aureus
Description: as §3, §4

[13] = Table 2 screen, medium 0.037% BHI + 85 mM NaCl, 2 h at 37°C, up to 200 mg/L, duplicates, maximum of at least two independent experiments
[14] = Table 2 screen, medium 0.037% BHI + 150 mM NaCl, 2 h at 37°C, up to 200 mg/L, duplicates, maximum of at least two independent experiments
[15] = Table 3 panel, up to 200 mg/L, duplicates, maximum of at least two independent experiments
[16] = up to 200 mg/L, duplicates, maximum of at least two independent experiments
[17] = after 14 days of cultivation under selection pressure, 0.37% BHI, 24 h passages
[18] = multistep resistance assay, before passaging (day 0)

Compound | MMC99, S. aureus ATCC 12600, 50% h.i. SWF (S. aureus (ATCC 12600) [1]; [15]) | MMC99, P. aeruginosa ATCC 15442, 0.037% BHI [2, 16] | MMC99, P. aeruginosa ATCC 15442, 50% h.i. SWF [2, 16] | MMC99, MRSA ATCC 33591, 0.037% BHI (MRSA (ATCC 33591) [3]) | MMC99, MRSA ATCC 33591, 50% h.i. SWF (MRSA (ATCC 33591) [3]) | MMC99, A. baumannii CCUG 58437, 0.037% BHI [4] | MMC99, A. baumannii CCUG 58437, 50% h.i. SWF [4] | MMC99, C. albicans ATCC 64549, 0.037% BHI [5] | MMC99, C. albicans ATCC 64549, 50% h.i. SWF [5] | MMC99, E. coli ATCC 11775, 0.037% BHI [6] | MMC99, E. coli ATCC 11775, 50% h.i. SWF [6] | MMC99, K. pneumoniae CCUG 59413, 0.037% BHI [7] | MMC99, K. pneumoniae CCUG 59413, 50% h.i. SWF [7] | MMC99, S. epidermidis ATCC 12228, 0.037% BHI [8] | MMC99, S. epidermidis ATCC 12228, 50% h.i. SWF [8] | MMC99, S. pyogenes ATCC 12344, 0.037% BHI [9] | MMC99, S. pyogenes ATCC 12344, 50% h.i. SWF [9] | also measured
GW(Br)FKKTFHKVSHAVKSGIHA [CEN1 HC-Br (1–20), C-terminal truncated variant of CEN1 HC-Br] |  |  |  |  |  |  |  |  |  |  |  |  |  |  |  |  |  | S. aureus MMC99, 0.037% BHI + 85 mM NaCl (S. aureus (ATCC 12600) [1]; [13]): >200 mg/L; S. aureus MMC99, 0.037% BHI + 150 mM NaCl (S. aureus (ATCC 12600) [1]; [14]): >200 mg/L; S. aureus MMC99, 0.037% BHI (S. aureus (ATCC 12600) [1]; Table 2 screen, medium 0.037% BHI, ≥99% reduction of bacteria, 2 h at 37°C, tested up to 200 mg/L, duplicates, maximum value from at least two independent experiments): 12.5 mg/L; S. aureus MMC99, 0.037% BHI with 85 mM or 150 mM NaCl (S. aureus (ATCC 12600) [1]; text summary over both NaCl concentrations of Table 2a): ≥ 200 mg/L; P. aeruginosa MMC99, 0.037% BHI + 85 mM NaCl [2, 13]: 12.5 mg/L; P. aeruginosa MMC99, 0.037% BHI + 150 mM NaCl [2, 14]: 25 mg/L; P. aeruginosa MMC99, 0.037% BHI ([2]; Table 2 screen, medium 0.037% BHI, 2 h at 37°C, up to 200 mg/L, duplicates, maximum of at least two independent experiments): 12.5 mg/L; P. aeruginosa MMC99, 0.037% BHI with 85 mM or 150 mM NaCl ([2]; text summary over both NaCl concentrations of Table 2b, compared to 0.037% BHI only): 12.5 to 100.0 mg/L
CC(=O)O[C@H]1C[C@@]2(C)[C@@H](C[C@@H](O)[C@H]3[C@@]4(C)CC[C@@H](O)[C@@H](C)[C@@H]4CC[C@@]32C)/C1=C(\CCC=C(C)C)C(=O)O [fusidic acid] | 6.3 mg/L | >200 mg/L | >200 mg/L | 6.3 mg/L | 6.3 mg/L | >200 mg/L | >200 mg/L | >200 mg/L | >200 mg/L | >200 mg/L | >200 mg/L | >200 mg/L | >200 mg/L | 6.3 mg/L | 6.3 mg/L | >200 mg/L | >200 mg/L | 
C/C(=C\C(=O)OCCCCCCCCC(=O)O)C[C@@H]1OC[C@H](C[C@@H]2O[C@H]2[C@@H](C)[C@H](C)O)[C@@H](O)[C@H]1O [mupirocin, Mupirocin] | 3.1 mg/L | >200 mg/L | >200 mg/L | 3.1 mg/L | 3.1 mg/L | >200 mg/L | >200 mg/L | >200 mg/L | >200 mg/L | >200 mg/L | >200 mg/L | >200 mg/L | >200 mg/L | 3.1 mg/L | 3.1 mg/L | 6.3 mg/L | 3.1 mg/L | MMC99, S. aureus ATCC 12600, 0.037% BHI (S. aureus (ATCC 12600) [1]; Table 3 panel, 0.037% BHI, up to 200 mg/L, duplicates, maximum of at least two independent experiments, comparators Bactroban 2% ointment, Fucidin 2% cream): 3.1 mg/L; MMC99, P. acnes ATCC 6919, 0.037% BHI ([10]; 0.037% BHI): >200 mg/L; MMC99, P. acnes ATCC 6919, 50% h.i. SWF ([10]; 50% h.i. SWF): >200 mg/L; Concentration killing ≥99% of the bacteria (MMC99), day 14 (S. aureus (ATCC 12600) [11]; [17]): 24 mg/L; Concentration killing ≥99% of the bacteria (MMC99), day 0 (S. aureus (ATCC 12600) [11]; [18]): 3 mg/L; Concentration killing ≥99% of the bacteria (MMC99), day 14 (MRSA (ATCC 33591) [12]; [17]): > 384 mg/L; Concentration killing ≥99% of the bacteria (MMC99), day 0 (MRSA (ATCC 33591) [12]; [18]): 3 mg/L
